# Measurements: ChEMBL document CHEMBL1158549, “Synthesis and evaluation of a series of C5'-substituted duocarmycin SA analogs” (Bioorg Med Chem Lett, 2010)
# Test system: L1210
# Assay: Cytotoxicity against mouse L1210 cells
# Assay type: functional, cell-based
row,Structure (SMILES),IC50 [pM]
1,COC(=O)c1cc2c3c(cc(O)c2[nH]1)N(C(=O)c1cc2cc(C(F)(F)F)ccc2[nH]1)C[C@H]3CCl,75
2,COC(=O)c1cc2c3c(cc(O)c2[nH]1)N(C(=O)c1cc2ccccc2[nH]1)C[C@H]3CCl,72
3,COC(=O)c1cc2c([nH]1)C(=O)C=C1N(C(=O)c3cc4cc(O)ccc4[nH]3)C[C@H]3C[C@]123,53
4,COC(=O)c1ccc2[nH]c(C(=O)N3C[C@H]4C[C@@]45C3=CC(=O)c3[nH]c(C(=O)OC)cc35)cc2c1,47
5,COC(=O)c1cc2c3c(cc(O)c2[nH]1)N(C(=O)c1cc2cc(F)ccc2[nH]1)C[C@H]3CCl,79
6,COC(=O)c1cc2c([nH]1)C(=O)C=C1N(C(=O)c3cc4cc(C#N)ccc4[nH]3)C[C@H]3C[C@]123,7
7,COC(=O)c1cc2c([nH]1)C(=O)C=C1N(C(=O)c3cc4cc(F)ccc4[nH]3)C[C@H]3C[C@]123,54
8,COC(=O)c1cc2c3c(cc(O)c2[nH]1)N(C(=O)c1cc2cc(O)ccc2[nH]1)C[C@H]3CCl,50
9,COC(=O)c1cc2c([nH]1)C(=O)C=C1N(C(=O)c3cc4cc(OC)ccc4[nH]3)C[C@H]3C[C@]123,7.5
10,COC(=O)c1cc2c([nH]1)C(=O)C=C1N(C(=O)c3cc4cc(NC(C)=O)ccc4[nH]3)C[C@H]3C[C@]123,83
11,COC(=O)c1cc2c([nH]1)C(=O)C=C1N(C(=O)c3cc4cc(O)c(OC)cc4[nH]3)C[C@H]3C[C@]123,33
12,COC(=O)c1cc2c([nH]1)C(=O)C=C1N(C(=O)c3cc4cc(C(F)(F)F)ccc4[nH]3)C[C@H]3C[C@]123,65
13,CNC(=O)c1ccc2[nH]c(C(=O)N3C[C@@H](CCl)c4c3cc(O)c3[nH]c(C(=O)OC)cc43)cc2c1,61
14,CNC(=O)c1ccc2[nH]c(C(=O)N3C[C@H]4C[C@@]45C3=CC(=O)c3[nH]c(C(=O)OC)cc35)cc2c1,70
15,COC(=O)c1cc2c3c(cc(O)c2[nH]1)N(C(=O)c1cc2cc(S(C)(=O)=O)ccc2[nH]1)C[C@H]3CCl,58
16,COC(=O)c1cc2c3c(cc(O)c2[nH]1)N(C(=O)c1cc2cc(OC(F)(F)F)ccc2[nH]1)C[C@H]3CCl,85
17,COC(=O)c1cc2c3c(cc(O)c2[nH]1)N(C(=O)c1cc2cc(C(C)=O)ccc2[nH]1)C[C@H]3CCl,38
18,COC(=O)c1cc2c3c(cc(O)c2[nH]1)N(C(=O)c1cc2cc(C#N)ccc2[nH]1)C[C@H]3CCl,9
19,COC(=O)c1cc2c3c(cc(O)c2[nH]1)N(C(=O)c1cc2cc(OC)ccc2[nH]1)C[C@H]3CCl,21
20,COC(=O)c1cc2c([nH]1)C(=O)C=C1N(C(=O)c3cc4cc([N+](=O)[O-])ccc4[nH]3)C[C@H]3C[C@]123,41
21,COC(=O)c1cc2c([nH]1)C(=O)C=C1N(C(=O)c3cc4cc(C)ccc4[nH]3)C[C@H]3C[C@]123,77
22,COC(=O)c1cc2c([nH]1)C(=O)C=C1N(C(=O)c3cc4cc(C(C)=O)ccc4[nH]3)C[C@H]3C[C@]123,43
23,COC(=O)c1cc2c([nH]1)C(=O)C=C1N(C(=O)c3cc4cc(OC)c(OC)c(OC)c4[nH]3)C[C@H]3C[C@]123 [DUOCARMYCIN],6
24,COC(=O)c1cc2c([nH]1)C(=O)C=C1N(C(=O)c3cc4cc(S(C)(=O)=O)ccc4[nH]3)C[C@H]3C[C@]123,58
25,COC(=O)c1ccc2[nH]c(C(=O)N3C[C@@H](CCl)c4c3cc(O)c3[nH]c(C(=O)OC)cc43)cc2c1,48
26,COC(=O)c1cc2c([nH]1)C(=O)C=C1N(C(=O)c3cc4cc(OC(F)(F)F)ccc4[nH]3)C[C@H]3C[C@]123,49
27,COC(=O)c1cc2c([nH]1)C(=O)C=C1N(C(=O)c3cc4cc(OC)c(O)cc4[nH]3)C[C@H]3C[C@]123,7
28,COC(=O)c1cc2c3c(cc(O)c2[nH]1)N(C(=O)c1cc2cc(C)ccc2[nH]1)C[C@H]3CCl,78
29,COC(=O)c1cc2c3c(cc(O)c2[nH]1)N(C(=O)c1cc2cc(NC(C)=O)ccc2[nH]1)C[C@H]3CCl,81
30,COC(=O)c1cc2c([nH]1)C(=O)C=C1N(C(=O)c3cc4ccccc4[nH]3)C[C@H]3C[C@]123,68
